Data taken from patent US11780826B2 (Amgen Inc., priority 2017, dated 2023).

Tested on: Bovine cardiac myofibrils
Assay: In vitro model of dose-dependent myofibril ATPase modulation (AC1.4, pyruvate kinase/lactate dehydrogenase-coupled ATPase assay at pCa25)
Format: biochemical
Conditions: concentration at which ATPase activity was 1.4-fold higher than the bottom of the dose curve, mean of a minimum of two independent tests
Outline: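 Absorbance at 340 nm tracked ATP hydrolysis through pyruvate kinase/lactate dehydrogenase coupling (0.5 mM NADH, 1.5 mM PEP). Myofibrils from detergent-homogenized bovine heart, 1 mM ATP, pH 6.80, EGTA/CaCl2 buffering. Dose-response curves fitted with a four-parameter Hill equation.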

| Compound | AC1.4 [µM] |
| --- | --- |
| Cc1ccc(C(C)NC(=O)[C@H]2CCCN2C(=O)[C@H]2CCCN(S(=O)(=O)N3CC(C#N)C3)C2)cc1 (stereo partly drawn) [Example 452, (2R)-1-((S)-1-((3-cyanoazetidin-1-yl)sulfonyl)piperidine-3-carbonyl)-N-(1-(p-tolyl)ethyl)pyrrolidine-2-carboxamide] | 1.8655 |
| N#CC1CN(S(=O)(=O)N2CCC(F)(F)[C@H](C(=O)N3CCC[C@@H]3C(=O)NCc3ccc(C(F)(F)F)cc3)C2)C1 [Example 143, 1-(((3S)-1-((3-cyano-1-azetidinyl)sulfonyl)-4,4-difluoro-3-piperidinyl)carbonyl)-N-(4-(trifluoromethyl)benzyl)-D-prolinamide] | 0.244 |
| CN1C[C@H](C(=O)N[C@@H](c2ccc(C(F)(F)F)cc2F)C2CC2)N(C(=O)c2cccc(S(C)(=O)=O)c2)C1=O [Example 693, (4R)-N-((R)-cyclopropyl(2-fluoro-4-(trifluoromethyl)phenyl)methyl)-1-methyl-3-(3-(methylsulfonyl)benzoyl)-2-oxo-4-imidazolidinecarboxamide] | 5.425 |
| CS(=O)(=O)c1cncc(C(=O)N2CC(F)(F)C2C(=O)N[C@@H](c2cc(F)c(C(F)(F)F)cc2F)C2CC2)c1 (stereo partly drawn) [Example 767, N-((R)-cyclopropyl(2,5-difluoro-4-(trifluoromethyl)phenyl)methyl)-3,3-difluoro-1-(5-(methylsulfonyl)nicotinoyl)azetidine-2-carboxamide] | 8.015 |
| N#CC1CN(S(=O)(=O)N2CCC[C@H](C(=O)N3CCC[C@@H]3C(=O)N[C@H](CO)c3ccc(Cl)cc3)C2)C1 [Example 169, N-((1S)-1-(4-chlorophenyl)-2-hydroxyethyl)-1-(((3S)-1-((3-cyano-1-azetidinyl)sulfonyl)-3-piperidinyl)carbonyl)-D-prolinamide] | 0.2892 |
| O=C(N[C@@H](c1ccc(C(F)(F)F)cc1F)C1CC1)[C@H]1CCCCN1C(=O)c1cccc(C(O)C(F)(F)F)c1 (stereo partly drawn) [Example 347, (2R)-N-((R)-cyclopropyl(2-fluoro-4-(trifluoromethyl)phenyl)methyl)-1-(3-(2,2,2-trifluoro-1-hydroxyethyl)benzoyl)piperidine-2-carboxamide] | 1.0255 |
| N#CC1CN(S(=O)(=O)N2CCC[C@H](C(=O)N3CCC[C@@H]3C(=O)NCc3ccc(CF)cc3)C2)C1 [Example 413, 1-(((3S)-1-((3-cyano-1-azetidinyl)sulfonyl)-3-piperidinyl)carbonyl)-N-(4-(fluoromethyl)benzyl)-D-prolinamide] | 1.511 |
| CN(Cc1ccc(C(F)(F)F)cc1)C(=O)[C@H]1CCCN1C(=O)c1cccc(S(=O)(=O)N2CC(C#N)C2)c1 [Example 75, 1-((3-((3-cyano-1-azetidinyl)sulfonyl)phenyl)carbonyl)-N-methyl-N-(4-(trifluoromethyl)benzyl)-D-prolinamide] | 0.1006 |
| C[C@@H](NC(=O)[C@H]1CCCN1C(=O)c1cccc(S(=O)(=O)N2CC(C#N)C2)c1)c1ccccc1 [Example 785, 1-((3-((3-cyano-1-azetidinyl)sulfonyl)phenyl)carbonyl)-N-((1R)-1-phenylethyl)-D-prolinamide] | 8.8883 |
| O=C(N[C@@H](c1cc(F)c(Cl)cc1F)C1CC1)[C@H]1C[C@H]2C[C@H]2N1C(=O)c1cccc(C(F)(F)F)n1 [Example 667, (1R,3R,5R)-N-((R)-(4-chloro-2,5-difluorophenyl)(cyclopropyl)methyl)-2-((6-(trifluoromethyl)-2-pyridinyl)carbonyl)-2-azabicyclo[3.1.0]hexane-3-carboxamide] | 4.708 |
| C[C@H](C(=O)N[C@H](C)c1ccc(C(F)(F)F)cc1)N(C)C(=O)c1cccc(S(=O)(=O)N2CC(C#N)C2)c1 [Example 121, 3-((3-cyano-1-azetidinyl)sulfonyl)-N-methyl-N-((1R)-1-methyl-2-oxo-2-(((1R)-1-(4-(trifluoromethyl)phenyl)ethyl)amino)ethyl)benzamide] | 0.1828 |
| N#CC1CN(S(=O)(=O)c2cccc(C(=O)N3CCC[C@@H]3C(=O)NCc3cc(F)cc(F)c3)c2)C1 [Example 55, 1-(3-((3-cyano-1-azetidinyl)sulfonyl)benzoyl)-N-(3,5-difluorobenzyl)-D-prolinamide] | 0.0606 |
| CC(C)N(C)S(=O)(=O)c1cccc(C(=O)N2CCC[C@@H]2C(=O)NCc2ccc(C(F)(F)F)cc2)c1 [Example 315, 1-(3-(methyl(2-propanyl)sulfamoyl)benzoyl)-N-(4-(trifluoromethyl)benzyl)-D-prolinamide] | 0.8574 |
| O=C(N[C@@H](c1ccc(C(F)(F)F)cc1F)C1CC1)[C@H]1CCCCN1C(=O)c1ccc2c(c1)S(=O)(=O)CC2 [Example 653, (2R)—N—((R)-cyclopropyl(2-fluoro-4-(trifluoromethyl)phenyl)methyl)-1-((1,1-dioxido-2,3-dihydro-1-benzothiophen-6-yl)carbonyl)-2-piperidinecarboxamide] | 4.5245 |
| N#CC1CN(S(=O)(=O)N2CCC[C@H](C(=O)N3CCC[C@@H]3C(=O)NC3COc4ccc(C(F)(F)F)cc43)C2)C1 (stereo partly drawn) [Example 657, (2R)-1-((S)-1-((3-cyanoazetidin-1-yl)sulfonyl)piperidine-3-carbonyl)-N-(5-(trifluoromethyl)-2,3-dihydrobenzofuran-3-yl)pyrrolidine-2-carboxamide] | 4.572 |
| COCC(=O)NC1CN(S(=O)(=O)N2CCC[C@H](C(=O)N3CCC[C@@H]3C(=O)NCc3ccc(C(F)(F)F)cc3)C2)C1 [Example 692, 1-(((3S)-1-((3-((methoxyacetyl)amino)-1-azetidinyl)sulfonyl)-3-piperidinyl)carbonyl)-N-(4-(trifluoromethyl)benzyl)-D-prolinamide] | 5.379 |
| N#CC1CN(S(=O)(=O)c2cccc(C(=O)N3CCC[C@@H]3C(=O)N[C@@H](c3ccc(S(F)(F)(F)(F)F)cc3)C3CC3)c2)C1 [Example 52, 1-(3-((3-cyano-1-azetidinyl)sulfonyl)benzoyl)-N-((R)-cyclopropyl(4-(pentafluoro-lambda~6~-sulfanyl)phenyl)methyl)-D-prolinamide] | 0.05535 |
| CS(=O)(=O)c1cccc(C(=O)N2CCCC[C@@H]2C(=O)N[C@@H](c2ccc(C(F)F)cc2F)C2CC2)c1 [Example 578, (2R)-N-((R)-cyclopropyl(4-(difluoromethyl)-2-fluorophenyl)methyl)-1-(3-(methylsulfonyl)benzoyl)-2-piperidinecarboxamide] | 3.3475 |
| CS(=O)(=O)c1cccc(C(=O)N2CC3(CCC3)C2C(=O)N[C@@H](c2ccc(C(F)(F)F)cc2F)C2CC2)c1 (stereo partly drawn) [Example 609, N-((R)-cyclopropyl(2-fluoro-4-(trifluoromethyl)phenyl)methyl)-2-(3-(methylsulfonyl)benzoyl)-2-azaspiro[3.3]heptane-1-carboxamide] | 3.7443 |
| O=C(N[C@@H](c1cc(F)c(Cl)cc1F)C1CC1)[C@H]1C[C@H]2C[C@H]2N1C(=O)c1cc(S(=O)(=O)C2CC2)ccn1 [Example 138, (1R,3R,5R)-N-((R)-(4-chloro-2,5-difluorophenyl)(cyclopropyl)methyl)-2-((4-(cyclopropylsulfonyl)-2-pyridinyl)carbonyl)-2-azabicyclo[3.1.0]hexane-3-carboxamide] | 0.2306 |
